From patent US6348488B1, “Remedies for motor dysfunction and GAPDH expression inhibitors” (Ono Pharmaceutical Co., Ltd., priority 1998, dated 2002)

Key:
spinal cord impact model = assay: Motor dysfunction inhibitory action in spinal cord impact model (treadmill maximum walking distance); assay type: in vivo, rat
Procedure: A male Wistar rat (about 250 g) was placed in a supine position under anesthesia with sodium pentobarbital (40 mg/kg, i.p.). After partial laminectomy to remove the fifth lumber spine, a silicon rubber (height: 1 mm, length: 4 mm, and width: 1.25 mm) was inserted in the fourth and sixth lumber spines.
After the operation, the maximum walking distance was measured using a treadmill on Day 1, 2, 3, 5, 7 and 14.
That is, the treadmill was run at a speed starting from 10 m/min, with an increment at a rate of 5 m/min every 3 minutes thereafter until the time when the animal dropped from the walking belt and could not walk any further. The walking distance was calculated from the time when the animal could not walk any further.

[1] = tested on: spinal cord injury crush lesion model; assay: Motor dysfunction in spinal cord injury (crush lesion model, modified Tarlov scale); assay type: in vivo, rat; conditions: 10 mg/kg, versus vehicle control group
Procedure: A male Wistar rat (about 250 to 300 g) was subject to dorsal median incision and laminectomy to remove thoracic spine (T11) under anesthesia with sodium pentobarbital and then the dura mater was exposed. A metal pole (diameter: 3 mm, length: 40 mm, weight: 3.8 g) was placed on the dura mater and a load of 10 g was dropped from a height of 10 cm through a cylinder to prepare a crush lesion model. Thereafter, the muscle layer and skin were sutured. The behavioral deficit was evaluated using modifications of Tarlov scale. That is, the evaluation was made based on mean scores of both hind legs according to the following scores. Neurologic scores: 0 Complete paralysis of hind legs 1 Slight movements of hind legs were observed. 2 Movements of hind legs were clear but the body weight could not be supported so that autonomic movement was impossible. 3 The animal crept and could not support the body weight. 4 The animal could support the body weight when standing or walking. However, clearly disabled. 5 Posture and walking ability are close to those of normal animals.

[2] = tested on: cerebellar granule cells (CGC); assay: cells; assay type: cell-based; conditions: for Age-induced apoptosis of CGC: added at 7 DIV, agent 0.03 μM, THA 10 μM
Procedure: A) Preparation of primary culture cerebellar granule cells (CGC)
According to the method by Ishitani et al., CGC was prepared as follows (Ishitani et al., J. Neurochem., 66:928-35, 1996).
Cerebellum was excised from an 8-day old Sprague-Dawley rat and cut to 0.4 mm square cubes using Mcllawin tissue chopper. Further, the cubes were digested at 37° C. for 15 minutes in a 0.025% trypsin-containing Krebs phosphate buffer (KPB).
After the reaction was stopped with KPB containing 0.008% soybean trypsin inhibitor and 0.0016% deoxyribonuclease I, the digested cubes were triturated in KPB containing 0.01% deoxyribonuclease I and 0.05% soybean trypsin inhibitor using a convergent Pasteur pipette to obtain dispersed CGC.
The cells were suspended in a basal modified Eagle's medium (BME) containing 10% fetal calf serum (FCS), 2 mM glutamine, 50 μg/ml gentamycin and 25 mM potassium chloride (KCl), and seeded on a plastic dish (35 mm) coated with poly-L-lysine (molecular weight: 3-7×10^4, 100 μg/ml) to a cell density of 2.1×10^5 live cells/cm^2.
Under 5% carbon dioxide (CO2), culture was started at 37° C. and after 18 to 24 hours cytosine arabinofuranoside (10 μM) for preventing the growth of non-neuronal cells was added and culture was continued. At 7 DIV (days in vitro), various chemicals were added and thereafter, culture was continued in the same medium.
B) Measurement of viability by live double staining method with FDA-PI
CGC after desired culture days was washed twice with 2 ml of Locke's solution (154 mM NaCl, 5.6 mM KCl, 2.3 mM CaCl2, 1.2 mM MgSO4, 5 mM HEPES, 5.6 mM glucose, 3.6 mM NaHCO3, pH 7.4) and then stained with 0.0008% fluorescein diacetate (FDA) and 0.0002% propidium iodide (PI) for 3 to 5 minutes.
Fluorescent observation was performed using epi-illuminated fluorescent microscope (Olympus, IMT2-RFL) equipped with a dichroic mirror for B excitement (IMT2-DMB), an auxiliary excitation filter (EY455) and an auxiliary filter (O530).
FDA was decomposed by an esterase in the living cells to emit fluorescence (fluorescein) from green to yellow fluorescence, on the other hand PI permeates through dead cell membranes and binds with DNA to emit from red to brown fluorescence, so that the both fluorescences can be observed simultaneously using the above-described fluorescence microscopy.
Viability was calculated according to the following formula.
Viability=[FDA stained cell number/(FDA stained cell number+PI stained cell number)]×100

GAPDH mRNA = GAPDH mRNA expression in CGC, Northern blotting analysis; assay type: cell-based, rat; conditions: addition at 7 DIV; measured at 15 DIV (CGC)
Procedure: Preparation of the primary culture cerebellar granule cells (CGC) was performed in accordance with Test Example 3 A).
Then, according to the method of Fukamauchi et al., total RNA was extracted from CGC of the desired culture day number. The total RNA (9 μg/lane) was electrophoresed on 1.2% agarose formaldehyde gel and transferred to a nylon membrane (Hybond-N, Amersham). Thereafter, it was subjected to prehybridization at 42° C. for 3 to 5 hours in a solution containing 5×Denhardt's solution (0.1% Ficol 400, 0.1% polyvinyl pyrrolidone, 0.1% BSA), 50% formamide, 50 μg/ml salmon testis DNA, and 0.5% SDS (Fukamauchi et al., J. Neurochem., 56:716-9, 1991, Sunaga et al., Neurosci. Lett., 163:27-30, 1993).
Using a Multi prime DNA labelling kit (Amersham), human GAPDH cDNA probe (Clontech, Palo Alto, Calif., U.S.A.) labeled with [α-^32P] deoxycytidine 5′-triphosphate (3,000 Ci/mm pl) was thermally denatured and thereafter added to the prehybridization solution, followed by hybridization at 42° C. for 24 hours.
The membrane was fully washed at 60° C. for 10 minutes in 0.1% SDS containing 0.1×SSC ([…], pH 7.0), exposed on a high-sensitivity X-ray film (IPSO 3000, Fuji) to prepare an autoradiogram. Quantitative analysis was performed using a CCD type image analyzer (BIOPROFIL, M&S).

GAPDH protein = GAPDH protein expression in CGC, SDS-PAGE and Western blotting analyses; assay type: cell-based, rat; conditions: process of age-induced cell death
Procedure: The cultured cells of the desired culture day number were washed three times with 2 ml of PBS and then stripped off by a rubber policeman and the cells were recovered by centrifugation at 188×G at 4° C. for 5 minutes. The cells were resuspended in ice-cooled 50 mM Tris-HCl buffer (pH 7.4) and the cell membranes were destroyed by sonication.
The homogenate was centrifuged at 2×10^5×G at 4° C. for 30 minutes to obtain a precipitate (insoluble fraction (pellet)), which was resuspended in the same buffer and then was subjected to quantitative determination of protein together with the supernatant (soluble “supernatant”). […]
The gel after the electrophoresis was stained with 0.1% Coomassie blue. The quantitative analysis of the amount of 38-kDa protein band was performed using a CCD type image analyzer (BIOPROFIL, N&S). […]
The PDVF membrane after the transcription was treated in 0.5% skim milk containing TBS-T (20 mM Tris, 137 mM NaCl, 0.05% Tween 20, pH 7.4) for 60 minutes to effect blocking, and then was allowed to react at room temperature for 60 minutes in TBS-T containing primary antibody (anti-rabbit GAPDH monoclonal antibody diluted to 1:15000). […] After washing the PVDF membrane, quantitative determination of GAPDH protein was performed on a high-sensitivity X-ray film using a detector for chemiluminescence (Renaissance TM, NEN).

[3] = Acute toxicity, rat, intravenous administration; assay type: in vivo
[4] = tested on: 30 types or more of surface receptors inclusive of overactivated NMDA receptors; assay: Influence on surface receptors in age-induced apoptosis of CGC

| Structure (SMILES) | Maximum Walking Distance (spinal cord impact model; 1 mg/Kg, Day 2 after administration) | Maximum Walking Distance (spinal cord impact model; 1 mg/Kg, Day 4 after administration) | Maximum Walking Distance (spinal cord impact model; 1 mg/Kg, Day 11 after administration) | Maximum Walking Distance (spinal cord impact model; 10 mg/Kg orally, Day 2 after administration) | Maximum Walking Distance (spinal cord impact model; 10 mg/Kg orally, Day 4 after administration) | Maximum Walking Distance (spinal cord impact model; 10 mg/Kg orally, Day 11 after administration (day 14 after operation)) | Maximum Walking Distance (spinal cord impact model; 10 mg/Kg orally, Day 11 after administration (day 14 after operation), listed as N-[3-[N-(4-chlorophenylmethyl)carbamoyl]propanoyl]-L-prolinal) | Influence on the autonomic movement and sensitivity to pain (spinal cord impact model; rat, spinal cord impact model) | Degree of recovery of motor dysfunction (neurologic score) ([1]; day 9 up to day 21 of the operation) | Change in body weight after the operation [1] | viability at 0.03 µM ([2]; Rattus norvegicus, 0.03 μM added at 7 DIV, at 17 DIV) | Age-induced apoptosis of CGC [2] | Concentration exhibiting a protective action to neurons ([2]; at 17 DIV) | Increase in GAPDH mRNA (GAPDH mRNA) | Increase in the 38-kDa protein (GAPDH) in cell membrane fraction (GAPDH protein) | Acute toxicity (LD50) [3] | Influence on surface receptors [4] | Inhibition of the cell death ([2]; 1 μM) | Inhibition of the cell death ([2]; 10 μM) |
| --- | --- | --- | --- | --- | --- | --- | --- | --- | --- | --- | --- | --- | --- | --- | --- | --- | --- | --- | --- |
| O=C[C@@H]1CCCN1C(=O)CCC(=O)NCc1ccc(Cl)cc1 [Agent of invention, N-[3-[N-(4-chlorophenylmethyl)carbamoyl]propanoyl]-L-prolinal] | 237 ± 49 m | 414 ± 58 m | 347 ± 77 m | 329 ± 15 m | 455 ± 34 m | 408 ± 30 m | 408±30 m | no influence | tended to be superior as compared with the vehicle control group | tended to be superior to the vehicle control group | 92 ± 4.4% | inhibited | several | completely inhibited | inhibited the increase | 200 mg/kg body weight | no influence | – | – |
| Nc1c2c(nc3ccccc13)CCCC2 [THA, 9-amino-1,2,3,4-tetrahydroacridine, reference compound] | – | – | – | – | – | – | – | – | – | – | – | inhibited | – | – | – | – | – | about 30% | almost completely |
